Measurements taken from patent publication US11236088B2, “Heterocyclic compounds and their application in medicine” (KIND PHARMACEUTICAL, priority 2017, dated 2022).

Test system: MCF-7 cells
Test: Inhibitory effect on the growth of MCF-7 cells (CellTiter-Glo, 10 days)
Type: cell-based
Conditions: Homo sapiens, MCF7, 240 h, 10 days incubation, CellTiter-Glo chemiluminescence
Protocol: Assay 2: Inhibitory effect of compounds of the present invention on the growth of MCF-7 cells by a cell drug inhibition experiment
1. Experimental Materials
1) Reagents: DMEM high glucose medium (Lonza #12-604F), FBS (BI #04-00F1ACS), antibiotics (Thermofisher #15070063), bovine insulin (Western reagent #11070-73-8), trypsin (Thermofisher #25200-056), CellTiter-Glo reagent (Promega #G7571)
2) Instruments: American MD-M5 microplate reader 5;
2. Experimental Procedures:
1) 100 μl of MCF-7 cells was added to a medium in a white opaque 96-well plate at a density of 5000 cells/ml in which the medium is DMEM high-glucose medium supplemented with 10% FBS. The cells were cultured in a 5% CO2 cell incubator at 37° C. for 24 hours.
2) Different concentrations of corresponding compounds were added to the 96-well plate for incubating MCF-7 cells. The cells were incubated for 10 days in a 5% CO2 cell incubator.
3) To each well of MCF-7 cells, 100 μl of CellTiter-Glo reagent was added and then set aside at room temperature for 10 minutes. The chemiluminescence signal was read using an MD-M5 microplate reader, and the data was processed using GraphPad Prism to calculate IC50 value.

| SMILES | IC50 [nM] |
| --- | --- |
| CN1Cc2c(ccc3[nH]ncc23)[C@@H](c2c(F)cc(SC3CN(CCCF)C3)cc2F)[C@@H]1CC1CC1 [Example 25] | 10 to 1000 |
| CC(C)C[C@H]1[C@H](c2c(F)cc(SC3CN(CC(C)C)C3)cc2F)c2ccc3[nH]ncc3c2CN1C [Example 13, (6S, 7S)-6-(2,6-difluoro-4-((1-isobutylazetidin-3-yl)thio)phenyl)-7-isobutyl-8-methyl-6,7,8,9-tetrahydro-3H-pyrazolo [3,4-h]isoquinoline] | 10 to 1000 |
| CC(C)C[C@H]1[C@H](c2c(F)cc(NC3CN(CCCF)C3)cc2F)c2ccc3[nH]ncc3c2CN1C [Example 2, N-(3,5-difluoro-4-((6S, 7S)-7-isobutyl-8-methyl-6,7,8,9-tetrahydro-3H-pyrazolo [3,4-h]isoquinolin-6-yl)phenyl)-1-(3-fluoropropyl) azetidin-3-amine] | ≤ 1 |
| CCCCCN1CC(Nc2cc(F)c([C@@H]3c4ccc5[nH]ncc5c4CN(C)[C@H]3CC(C)C)c(F)c2)C1 [Example 9, N-(3,5-difluoro-4-((6S, 7S)-7-isobutyl-8-methyl-6,7,8,9-tetrahydro-3H-pyrazolo [3,4-h]isoquinolin-6-yl)phenyl)-1-pentylazetidin-3-amine] | > 1000 |
| CC(C)C[C@H]1[C@H](c2c(F)cc(OC3CN(CC(C)C)C3)cc2F)c2ccc3[nH]ncc3c2CN1C [Example 17, (6S, 7S)-6-(2,6-difluoro-4-((1-isobutylazetidin-3-yl)oxy)phenyl)-7-isobutyl-8-methyl-6,7,8,9-tetrahydro-3H-pyrazolo [3,4-h]isoquinoline] | 1 to 10 |
| CC(C)CN1CC(Sc2cc(F)c([C@@H]3c4ccc5[nH]ncc5c4CN(C)[C@H]3CC3CC3)c(F)c2)C1 [Example 28, (6S, 7S)-6-(4-((1-isobutylazetidin-3-yl)thio)-2,6-difluorophenyl)-7-cyclopropylmethyl-8-methyl-6,7,8,9-tetrahydro-3H-pyrazolo [3,4-h]isoquinoline] | > 1000 |
| CCCCCN1CC(Oc2cc(F)c([C@@H]3c4ccc5[nH]ncc5c4CN(C)[C@H]3CC(C)C)c(F)c2)C1 [Example 19] | > 1000 |
| CN1Cc2c(ccc3[nH]ncc23)[C@@H](c2c(F)cc(NC3CN(CCCF)C3)cc2F)[C@@H]1CC1CC1 [Example 5, N-(4-((6S, 7S)-7-cyclopropylmethyl-8-methyl-6,7,8,9-tetrahydro-3H-pyrazolo [3,4-h]isoquinolin-6-yl)-3,5-difluorophenyl)-1-(3-fluoropropyl) azetidin-3-amine] | > 1000 |
| CCCCN1CC(Oc2cc(F)c([C@@H]3c4ccc5[nH]ncc5c4CN(C)[C@H]3CC3CC3)c(F)c2)C1 [Example 23, (6S, 7S)-6-(4-((1-butylazetidin-3-yl)oxy)-2,6-difluorophenyl)-7-cyclopropylmethyl-8-methyl-6,7,8,9-tetrahydro-3H-pyrazolo [3,4-h]isoquinoline] | > 1000 |
| C[C@]12CC[C@@H]3c4ccc(O)cc4C[C@@H](CCCCCCCCC[S+]([O-])CCCC(F)(F)C(F)(F)F)[C@H]3[C@@H]1CC[C@@H]2O (stereo partly shown) [Fulvestrant, reference compound] | 10 to 1000 |
| CC(=O)N1CC(Oc2cc(F)c([C@@H]3c4ccc5[nH]ncc5c4CN(C)[C@H]3CC(C)C)c(F)c2)C1 [Example 31, 1-(3-(3,5-difluoro-4-((6S, 7S)-7-isobutyl-8-methyl-6,7,8,9-tetrahydro-3H-pyrazolo [3,4-h]isoquinolin-6-yl)phenoxy)azetidin-1-yl) ethan-1-one] | ≤ 1 |
| CC(C)C[C@H]1[C@H](c2c(F)cc(OC3CN(CCCF)C3)cc2F)c2ccc3[nH]ncc3c2CN1C [Example 15, (6S, 7S)-6-(2,6-difluoro-4-((1-(3-fluoropropyl)azetidin-3-yl)oxy)phenyl)-7-isobutyl-8-methyl-6,7,8,9-tetrahydro-3H-pyrazolo [3,4-h]isoquinoline] | ≤ 1 |
| CCCCN1CC(Sc2cc(F)c([C@@H]3c4ccc5[nH]ncc5c4CN(C)[C@H]3CC(C)C)c(F)c2)C1 [Example 12, (6S, 7S)-6-(4-((1-butylazetidin-3-yl)thio)-2,6-difluorophenyl)-7-isobutyl-8-methyl-6,7,8,9-tetrahydro-3H-pyrazolo [3,4-h]isoquinoline] | 10 to 1000 |
| CCCN1CC(Nc2cc(F)c([C@@H]3c4ccc5[nH]ncc5c4CN(C)[C@H]3CC(C)C)c(F)c2)C1 [Example 6, N-(3,5-difluoro-4-((6S, 7S)-7-isobutyl-8-methyl-6,7,8,9-tetrahydro-3H-pyrazolo [3,4-h]isoquinolin-6-yl)phenyl)-1-propylazetidin-3-amine] | > 1000 |
| CCCCN1CC(Oc2cc(F)c([C@@H]3c4ccc5[nH]ncc5c4CN(C)[C@H]3CC(C)C)c(F)c2)C1 [Example 18] | > 1000 |
| CCCCN1CC(Nc2cc(F)c([C@@H]3c4ccc5[nH]ncc5c4CN(C)[C@H]3CC(C)C)c(F)c2)C1 [Example 7, 1-butyl-N-(3,5-difluoro-4-((6S, 7S)-7-isobutyl-8-methyl-6,7,8,9-tetrahydro-3H-pyrazolo [3,4-h]isoquinolin-6-yl)phenyl) azetidin-3-amine] | > 1000 |
| CCCCCN1CC(Sc2cc(F)c([C@@H]3c4ccc5[nH]ncc5c4CN(C)[C@H]3CC(C)C)c(F)c2)C1 [Example 14, (6S, 7S)-6-(2,6-difluoro-4-((1-pentylazetidin-3-yl)thio)phenyl)-7-isobutyl-8-methyl-6,7,8,9-tetrahydro-3H-pyrazolo [3,4-h]isoquinoline] | > 1000 |
| CCCN1CC(Oc2cc(F)c([C@@H]3c4ccc5[nH]ncc5c4CN(C)[C@H]3CC(C)C)c(F)c2)C1 [Example 16, (6S, 7S)-6-(2,6-difluoro-4-((1-propylazetidin-3-yl)oxy)phenyl)-7-isobutyl-8-methyl-6,7,8,9-tetrahydro-3H-pyrazolo [3,4-h]isoquinoline] | ≤ 1 |
| CCCN1CC(Sc2cc(F)c([C@@H]3c4ccc5[nH]ncc5c4CN(C)[C@H]3CC3CC3)c(F)c2)C1 [Example 26, (6S, 7S)-7-cyclopropylmethyl-6-(2,6-difluoro-4-((1-propylazetidin-3-yl)thio)phenyl)-8-methyl-6,7,8,9-tetrahydro-3H-pyrazolo [3,4-h]isoquinoline] | 10 to 1000 |
| CCCN1CC(Oc2cc(F)c([C@@H]3c4ccc5[nH]ncc5c4CN(C)[C@H]3CC3CC3)c(F)c2)C1 [Example 21, (6S, 7S)-7-cyclopropylmethyl-6-(2,6-difluoro-4-((1-propylazetidin-3-yl)oxy)phenyl)-8-methyl-6,7,8,9-tetrahydro-3H-pyrazolo [3,4-h]isoquinoline] | > 1000 |
| CN1Cc2c(ccc3[nH]ncc23)[C@@H](c2c(F)cc(OC3CN(CCCF)C3)cc2F)[C@@H]1CC1CC1 [Example 20, (6S, 7S)-7-(cyclopropylmethyl)-6-(2,6-difluoro-4-((1-(3-fluoropropyl)azetidin-3-yl)oxy)phenyl)-8-methyl-6,7,8,9-tetrahydro-3H-pyrazolo [3,4-h]isoquinoline] | > 1000 |
| CC(C)C[C@H]1[C@H](c2c(F)cc(OC3CN(C(=O)C(C)C)C3)cc2F)c2ccc3[nH]ncc3c2CN1C [Example 34, 1-(3-(3,5-difluoro-4-((6S, 7S)-7-isobutyl-8-methyl-6,7,8,9-tetrahydro-3H-pyrazolo [3,4-h]isoquinolin-6-yl)phenoxy)azetidin-1-yl)-2-methylpropan-1-one] | 1 to 10 |
| CCC(=O)N1CC(Oc2cc(F)c([C@@H]3c4ccc5[nH]ncc5c4CN(C)[C@H]3CC(C)C)c(F)c2)C1 [Example 32, 1-(3-(3,5-difluoro-4-((6S, 7S)-7-isobutyl-8-methyl-6,7,8,9-tetrahydro-3H-pyrazolo [3,4-h]isoquinolin-6-yl)phenoxy)azetidin-1-yl) propan-1-one] | ≤ 1 |
| CC(C)CN1CC(Oc2cc(F)c([C@@H]3c4ccc5[nH]ncc5c4CN(C)[C@H]3CC3CC3)c(F)c2)C1 [Example 22, (6S, 7S)-7-cyclopropylmethyl-6-(2,6-difluoro-4-((1-isobutylazetidin-3-yl)oxy)phenyl)-8-methyl-6,7,8,9-tetrahydro-3H-pyrazolo [3,4-h]isoquinoline] | > 1000 |
| CCCN1CC(Sc2cc(F)c([C@@H]3c4ccc5[nH]ncc5c4CN(C)[C@H]3CC(C)C)c(F)c2)C1 [Example 11] | ≤ 1 |
| CCCCCN1CC(Sc2cc(F)c([C@@H]3c4ccc5[nH]ncc5c4CN(C)[C@H]3CC3CC3)c(F)c2)C1 [Example 29, (6S, 7S)-7-cyclopropylmethyl-6-(2,6-difluoro-4-((1-pentylazetidin-3-yl)thio)phenyl)-8-methyl-6,7,8,9-tetrahydro-3H-pyrazolo [3,4-h]isoquinoline] | > 1000 |
| CC(C)C[C@H]1[C@H](c2c(F)cc(NC3CN(CCC(F)(F)F)C3)cc2F)c2ccc3[nH]ncc3c2CN1C [Example 4, N-(3,5-difluoro-4-((6S, 7S)-7-isobutyl-8-methyl-6,7,8,9-tetrahydro-3H-pyrazolo [3,4-h]isoquinolin-6-yl)phenyl)-1-(3,3,3-trifluoropropyl) azetidin-3-amine] | > 1000 |
| CC(C)C[C@H]1[C@H](c2c(F)cc(NC3CN(CC(F)CF)C3)cc2F)c2ccc3[nH]ncc3c2CN1C (stereo partly drawn) [Example 3, N-(3,5-difluoro-4-((6S, 7S)-7-isobutyl-8-methyl-6,7,8,9-tetrahydro-3H-pyrazolo [3,4-h]isoquinolin-6-yl)phenyl)-1-(2,3-difluoropropyl) azetidin-3-amine] | > 1000 |
